In patent publication US4600689A, “Novel bilirubin oxidase, its production and use” (Takara Shuzo Co., Ltd., priority 1983, dated 1986):
Like-named read-outs stand apart in the source and are kept apart here.

Target: T1, novel bilirubin oxidase M-1 of Trachyderma tsunodae K-2593 (Trachydermella tsunodae, UniProt O61263)
T1 sequence (O61263 22-521): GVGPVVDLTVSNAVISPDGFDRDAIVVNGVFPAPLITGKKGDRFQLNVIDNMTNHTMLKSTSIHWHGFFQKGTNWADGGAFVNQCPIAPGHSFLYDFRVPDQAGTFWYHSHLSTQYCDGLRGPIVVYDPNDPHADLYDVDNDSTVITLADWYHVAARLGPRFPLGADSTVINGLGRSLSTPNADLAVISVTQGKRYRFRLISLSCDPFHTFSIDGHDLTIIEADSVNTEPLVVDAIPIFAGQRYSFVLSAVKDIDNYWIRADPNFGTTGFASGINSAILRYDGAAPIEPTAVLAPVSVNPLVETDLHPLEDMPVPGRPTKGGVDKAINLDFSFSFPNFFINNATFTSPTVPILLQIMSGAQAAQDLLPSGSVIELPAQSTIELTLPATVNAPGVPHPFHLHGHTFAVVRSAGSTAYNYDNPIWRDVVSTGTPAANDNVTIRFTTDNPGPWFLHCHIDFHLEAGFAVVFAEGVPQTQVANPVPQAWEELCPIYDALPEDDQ
Assay: Effect of interfering agents on bilirubin oxidase activity (decrease in absorption at 460 nm of bilirubin)
Assay type: biochemical
Details: 10 min

[1] = pH 7, read-out: Percent interference (%)
[2] = pH 7, additive 1 mM, read-out: Percent interference (%)

inhibition at 1000 µM [2] [%]	Structure (SMILES)	inhibition at 1000 µM [1] [%]
–	N[C@@H](CCC(=O)N[C@@H](CS)C(=O)NCC(=O)O)C(=O)O [Reduced glutathione]	38
74	N[C@@H](CS)C(=O)O [L-cysteine]	–
–	O=C(O)CN(CCN(CC(=O)O)CC(=O)O)CC(=O)O [EDTA]	59
34	c1cnc2c(c1)ccc1cccnc12 [o-Phenanthroline]	–
100	O=C1O[C@H]([C@@H](O)CO)C(O)=C1O [L-ascorbic acid]	–
31	OCCS [2-Mercaptoethanol]	–
–	O=C(O)CI [Iodoacetic acid]	10
86	O[C@H](CS)[C@H](O)CS (racemic) [Dithiothreitol]	–
–	c1ccc(-c2ccccn2)nc1 [α,α'-Dipyridyl]	30
